Values after ≈ are worked out from the molar mass of the structure shown.
Key:
[1] = tested on: Mycobacterium tuberculosis; experiment: Minimum inhibitory concentration against Mycobacterium tuberculosis; assay type: functional
[2] = tested on: Trichophyton benhamiae; experiment: Minimum inhibitory concentration against Trichophyton mentagrophytes; assay type: functional, Arthroderma benhamiae
[3] = tested on: Cryptococcus neoformans; experiment: Minimum inhibitory concentration against Cryptococcus neoformans; assay type: functional
[4] = tested on: Candida albicans; experiment: Minimum inhibitory concentration against Candida albicans; assay type: functional
[5] = tested on: Sporothrix schenckii; experiment: Minimum inhibitory concentration against Sporothrix schenckii
[6] = tested on: Aspergillus fumigatus; experiment: Minimum inhibitory concentration against Aspergillus fumigatus; assay type: functional
[7] = tested on: Candida parapsilosis; experiment: Minimum inhibitory concentration against Candida parapsilosis; assay type: functional; details: Lodderomyces parapsilosis
[8] = tested on: Mycobacterium tuberculosis; experiment: In vito growth of Mycobacterium tuberculosis BC-248 strain after 6 weeks; + indicates 1-20 colonies; assay type: functional, organism-based
[9] = tested on: Mycobacterium tuberculosis; experiment: In vito growth of Mycobacterium tuberculosis BC-248 strain after 6 weeks; - indicates no growth; assay type: functional, organism-based
[10] = tested on: Mycobacterium tuberculosis; experiment: In vito growth of Mycobacterium tuberculosis BC-426 strain after 6 weeks; - indicates no growth; assay type: functional, organism-based
[11] = tested on: Mycobacterium tuberculosis; experiment: In vito growth of Mycobacterium tuberculosis VA-101 strain after 6 weeks; […] colonies; assay type: functional, organism-based
[12] = tested on: Mycobacterium tuberculosis; experiment: In vito growth of Mycobacterium tuberculosis BC-437 strain after 6 weeks; - indicates no growth; assay type: functional, organism-based
[13] = tested on: Mycobacterium tuberculosis; experiment: In vito growth of Mycobacterium tuberculosis BC-243 strain after 6 weeks; - indicates no growth; assay type: functional, organism-based

Row | SMILES | MIC [1] [µg/mL] | MIC [2] [µg/mL] | MIC [3] [µg/mL] | MIC [4] [µg/mL] | MIC [5] [µg/mL] | MIC [6] [µg/mL] | MIC [7] [µg/mL] | Growth [8] | Growth [9] | Growth [10] | Growth [11] | Growth [12] | Growth [13]
1 | CC[C@@H](CO)NCCN[C@@H](CC)CO [ETHAMBUTOL] | 3.25 (≈ 15.9 µM) | – | – | – | – | – | – | – | – | – | – | – | –
2 | CC1(C)O[C@H]2OC(COCC(O)CN3CCCCC3)[C@@H]3OC(C)(C)O[C@@H]3[C@H]2O1 (stereo partly specified) | > 50 | 50 (≈ 125 µM) | 25 (≈ 62.3 µM) | > 50 | > 50 | > 50 | > 50 | – | – | – | – | – | –
3 | CC1(C)O[C@@H]2OC(COCC(O)CNCCCCCCCCCNCC(O)COCC3O[C@@H]4OC(C)(C)O[C@@H]4[C@H]4OC(C)(C)O[C@@H]34)[C@H]3OC(C)(C)O[C@H]3[C@@H]2O1 (stereo partly specified) | > 50 | 50 (≈ 63.2 µM) | 25 (≈ 31.6 µM) | > 50 | > 50 | > 50 | > 50 | – | – | – | – | – | –
4 | CC1(C)O[C@H]2OC(COCC(O)CN3CCCC3)[C@@H]3OC(C)(C)O[C@@H]3[C@H]2O1 (stereo partly specified) | > 50 | 50 (≈ 129 µM) | 25 (≈ 64.5 µM) | > 50 | > 50 | > 50 | > 50 | – | – | – | – | – | –
5 | CCCCCCCCCCCCNCC(O)COCC1O[C@@H]2OC(C)(C)O[C@@H]2[C@H]2OC(C)(C)O[C@@H]12 (stereo partly specified) | 12.5 (≈ 24.9 µM) | 6.25 (≈ 12.5 µM) | 1.56 (≈ 3.11 µM) | 12.5 (≈ 24.9 µM) | 6.25 (≈ 12.5 µM) | 6.25 (≈ 12.5 µM) | 25 (≈ 49.8 µM) | – | – | – | – | – | –
6 | CCCCCCCC/C=C/CCCCCCCCNCC(O)COCC1O[C@@H]2OC(C)(C)O[C@@H]2[C@H]2OC(C)(C)O[C@@H]12 (stereo partly specified) | 12.5 (≈ 21.4 µM) | 25 (≈ 42.8 µM) | 6.25 (≈ 10.7 µM) | 50 (≈ 85.6 µM) | 50 (≈ 85.6 µM) | 50 (≈ 85.6 µM) | > 50 | – | – | – | – | – | –
7 | CC1(C)O[C@@H]2OC(COCC(O)CNCCCCCCCCCCNCC(O)COCC3O[C@@H]4OC(C)(C)O[C@@H]4[C@H]4OC(C)(C)O[C@@H]34)[C@H]3OC(C)(C)O[C@H]3[C@@H]2O1 (stereo partly specified) | > 50 | 50 (≈ 62.1 µM) | 12.5 (≈ 15.5 µM) | > 50 | > 50 | > 50 | > 50 | – | – | – | – | – | –
8 | CC1(C)O[C@H]2OC(COCC(O)CN3CCN(c4cccc(Cl)n4)CC3)[C@@H]3OC(C)(C)O[C@@H]3[C@H]2O1 (stereo partly specified) | > 50 | 25 (≈ 48.6 µM) | 12.5 (≈ 24.3 µM) | > 50 | > 50 | > 50 | > 50 | – | – | – | – | – | –
9 | CC1(C)O[C@H]2OC(COCC(O)CNCc3ccccc3)[C@@H]3OC(C)(C)O[C@@H]3[C@H]2O1 (stereo partly specified) | > 50 | 50 (≈ 118 µM) | 25 (≈ 59 µM) | > 50 | > 50 | > 50 | > 50 | – | – | – | – | – | –
10 | CC1(C)O[C@@H]2OC(COCC(O)CNCCCNCC(O)COCC3O[C@@H]4OC(C)(C)O[C@@H]4[C@H]4OC(C)(C)O[C@@H]34)[C@H]3OC(C)(C)O[C@H]3[C@@H]2O1 (stereo partly specified) | > 50 | 50 (≈ 70.7 µM) | 25 (≈ 35.4 µM) | > 50 | > 50 | > 50 | > 50 | – | – | – | – | – | –
11 | CC1(C)O[C@H]2OC(COCC(O)CNCc3ccco3)[C@@H]3OC(C)(C)O[C@@H]3[C@H]2O1 (stereo partly specified) | > 50 | 50 (≈ 121 µM) | 25 (≈ 60.5 µM) | > 50 | > 50 | > 50 | > 50 | – | – | – | – | – | –
12 | CCCCCCCCCCCCCCCCNCC(O)COCC1O[C@@H]2OC(C)(C)O[C@@H]2[C@H]2OC(C)(C)O[C@@H]12 (stereo partly specified) | 12.5 (≈ 22.4 µM) | 12.5 (≈ 22.4 µM) | 6.25 (≈ 11.2 µM) | 25 (≈ 44.8 µM) | 25 (≈ 44.8 µM) | 25 (≈ 44.8 µM) | 25 (≈ 44.8 µM) | – | – | – | – | – | –
13 | CC1(C)O[C@@H]2OC(COCC(O)CNCCCCCCCNCC(O)COCC3O[C@@H]4OC(C)(C)O[C@@H]4[C@H]4OC(C)(C)O[C@@H]34)[C@H]3OC(C)(C)O[C@H]3[C@@H]2O1 (stereo partly specified) | > 50 | 50 (≈ 65.5 µM) | 50 (≈ 65.5 µM) | > 50 | > 50 | > 50 | > 50 | – | – | – | – | – | –
14 | CC(=O)N1CCN(c2ccc(OC[C@H]3CO[C@](Cn4ccnc4)(c4ccc(Cl)cc4Cl)O3)cc2)CC1 [KETOCONAZOLE] | – | 0.25 (≈ 0.47 µM) | 0.12 (≈ 0.226 µM) | 0.001 (≈ 0.00188 µM) | 0.5 (≈ 0.941 µM) | 0.25 (≈ 0.47 µM) | 0.12 (≈ 0.226 µM) | – | – | – | – | – | –
15 | CC1(C)O[C@@H]2OC(COCC(O)CNCCCCCCCCCCCCNCC(O)COCC3O[C@@H]4OC(C)(C)O[C@@H]4[C@H]4OC(C)(C)O[C@@H]34)[C@H]3OC(C)(C)O[C@H]3[C@@H]2O1 (stereo partly specified) | 1.56 (≈ 1.87 µM) | 50 (≈ 60 µM) | 12.5 (≈ 15 µM) | > 50 | > 50 | > 50 | > 50 | 1-20 colonies | – | – | – | – | –
16 | C[C@@H]1CN(c2c(F)c(N)c3c(=O)c(C(=O)O)cn(C4CC4)c3c2F)C[C@H](C)N1 | – | – | – | – | – | – | – | – | No growth | No growth | 1-20 colonies | No growth | No growth
17 | CC1(C)O[C@H]2OC(COCC(O)CN3CCOCC3)[C@@H]3OC(C)(C)O[C@@H]3[C@H]2O1 (stereo partly specified) | > 50 | 50 (≈ 124 µM) | 25 (≈ 62 µM) | > 50 | > 50 | > 50 | > 50 | – | – | – | – | – | –

Reference: ChEMBL document CHEMBL1147414, “Synthesis of galactopyranosyl amino alcohols as a new class of antitubercular and antifungal agents” (2004)
